Laboratory results from US8410302B2, “Methoxyimino compounds and fungicide composition comprising same” (Kyung Nong Corporation, priority 2007, dated 2013).
Like-named read-outs stand apart in the source and are kept apart here.

Experiments:
[1] = tested on: Pyricularia oryzae Carvara KA301; test: whole plant or invertebrate; assay type: in vivo; settings: for pest or weed control at 2 ppm / pest or weed control at 10 ppm / pest or weed control at 50 ppm / pest or weed control at 100 ppm: Pyricularia oryzae, read-out: RCB control value (C.V.); for RCB control value (C.V.): rice blast
Erysiphae graminis = test: Fungicidal activity against barley powdery mildew (BPM) disease, control value; assay type: in vivo; settings: for pest or weed control at 2 ppm / pest or weed control at 10 ppm / pest or weed control at 50 ppm / pest or weed control at 100 ppm: 168 h, read-out: BPM control value (C.V.)
Puccinia recondita = test: Fungicidal activity against wheat leaf rust (WLR) disease, control value; assay type: in vivo; settings: for pest or weed control at 2 ppm / pest or weed control at 10 ppm / pest or weed control at 50 ppm / pest or weed control at 100 ppm: read-out: WLR control value (C.V.)
Phytophthora infestans = test: whole plant or invertebrate; assay type: in vivo; settings: for pest or weed control at 2 ppm / pest or weed control at 10 ppm / pest or weed control at 50 ppm / pest or weed control at 100 ppm: Phytophthora infestans, in Solanum lycopersicum, read-out: TLB control value (C.V.); for TLB control value (C.V.): tomato late blight
Rhizoctonia solani AG-1 = test: Fungicidal activity against rice sheath blight (RSB) disease, control value; settings: for pest or weed control at 100 ppm / pest or weed control at 2 ppm / pest or weed control at 10 ppm / pest or weed control at 50 ppm: Rhizoctonia solani, AG1, in Oryza sativa, read-out: RSB control value (C.V.); for RSB control value (C.V.): rice sheath blight
Botrytis cinerae = test: Fungicidal activity against cucumber gray mold rot (CGM) disease, control value; assay type: in vivo; settings: for pest or weed control at 100 ppm / pest or weed control at 50 ppm: Botrytis, read-out: CGM control value (C.V.)
[2] = Hordeum vulgare, 2 ppm, barley powdery mildew
[3] = Hordeum vulgare, 10 ppm, barley powdery mildew
[4] = Hordeum vulgare, 50 ppm, barley powdery mildew
[5] = Hordeum vulgare, 100 ppm, barley powdery mildew
[6] = 100 ppm, cucumber gray mold rot

## CO/N=C(/C(=O)OC)c1ccccc1COc1ccc(C=C(Cl)Cl)cc1 [Example 3, methyl-(E)-2-(2-((4-(2,2-dichlorovinyl)phenoxy)methyl)phenyl)-2-methoxyiminoacetate]
[1]
  pest or weed control at 2 ppm: 30%
  pest or weed control at 10 ppm: 90%
  pest or weed control at 50 ppm: 100%
  pest or weed control at 100 ppm: 100%
Erysiphae graminis; [2]
  pest or weed control at 2 ppm: 20%
Erysiphae graminis; [3]
  pest or weed control at 10 ppm: 50%
Erysiphae graminis; [4]
  pest or weed control at 50 ppm: 95%
Erysiphae graminis; [5]
  pest or weed control at 100 ppm: 95%
Puccinia recondita; 2 ppm, wheat leaf rust
  pest or weed control at 2 ppm: 40%
Puccinia recondita; 10 ppm, wheat leaf rust
  pest or weed control at 10 ppm: 90%
Puccinia recondita; 50 ppm, wheat leaf rust
  pest or weed control at 50 ppm: 100%
Puccinia recondita; 100 ppm, wheat leaf rust
  pest or weed control at 100 ppm: 100%
Phytophthora infestans
  pest or weed control at 2 ppm: 0%
  pest or weed control at 10 ppm: 35%
  pest or weed control at 50 ppm: 95%
  pest or weed control at 100 ppm: 98%
Rhizoctonia solani AG-1
  pest or weed control at 100 ppm: 60%
Botrytis cinerae; [6]
  pest or weed control at 100 ppm: 50%

## CNC(=O)/C(=N/OC)c1ccccc1COc1cccc(C=C(Cl)Cl)c1Cl [Example 44, (E)-2-(2-((2-chloro-3-(2,2-dichlorovinyl)phenoxy)methyl)phenyl)-2-methoxyimino-N-methylacetamide]
[1]
  pest or weed control at 2 ppm: 100%
  pest or weed control at 10 ppm: 100%
  pest or weed control at 50 ppm: 100%
  pest or weed control at 100 ppm: 100%
Erysiphae graminis; [2]
  pest or weed control at 2 ppm: 100%
Erysiphae graminis; [3]
  pest or weed control at 10 ppm: 100%
Erysiphae graminis; [4]
  pest or weed control at 50 ppm: 100%
Erysiphae graminis; [5]
  pest or weed control at 100 ppm: 100%
Puccinia recondita; 2 ppm, wheat leaf rust
  pest or weed control at 2 ppm: 100%
Puccinia recondita; 10 ppm, wheat leaf rust
  pest or weed control at 10 ppm: 100%
Puccinia recondita; 50 ppm, wheat leaf rust
  pest or weed control at 50 ppm: 100%
Puccinia recondita; 100 ppm, wheat leaf rust
  pest or weed control at 100 ppm: 100%
Phytophthora infestans
  pest or weed control at 2 ppm: 95%
  pest or weed control at 10 ppm: 100%
  pest or weed control at 50 ppm: 100%
  pest or weed control at 100 ppm: 100%
Rhizoctonia solani AG-1
  pest or weed control at 2 ppm: 90%
  pest or weed control at 10 ppm: 100%
  pest or weed control at 50 ppm: 100%
  pest or weed control at 100 ppm: 100%
Botrytis cinerae; [6]
  pest or weed control at 100 ppm: 10%

## CNC(=O)/C(=N/OC)c1ccccc1CON=C(C)c1ccc(C=C(Cl)Cl)cc1 [Example 22, (E)-2-[[[[[2-[4-(2,2-dichlorovinyl)phenyl](1-methyl)methylidene]amino]oxy]methyl]phenyl]-2-methoxyimino-N-methylacetamide]
[1]; 2 ppm
  RCB control value (C.V.): 100%
[1]; 10 ppm
  RCB control value (C.V.): 100%
[1]; 50 ppm
  RCB control value (C.V.): 100%
[1]; 100 ppm
  RCB control value (C.V.): 100%
Erysiphae graminis; 2 ppm, barley powdery mildew
  BPM control value (C.V.): 98%
Erysiphae graminis; 10 ppm, barley powdery mildew
  BPM control value (C.V.): 100%
Erysiphae graminis; 50 ppm, barley powdery mildew
  BPM control value (C.V.): 100%
Erysiphae graminis; 100 ppm, barley powdery mildew
  BPM control value (C.V.): 100%
Puccinia recondita; 2 ppm, wheat leaf rust
  WLR control value (C.V.): 100%
Puccinia recondita; 10 ppm, wheat leaf rust
  WLR control value (C.V.): 100%
Puccinia recondita; 50 ppm, wheat leaf rust
  WLR control value (C.V.): 100%
Puccinia recondita; 100 ppm, wheat leaf rust
  WLR control value (C.V.): 100%
Phytophthora infestans; 2 ppm
  TLB control value (C.V.): 90%
Phytophthora infestans; 10 ppm
  TLB control value (C.V.): 100%
Phytophthora infestans; 50 ppm
  TLB control value (C.V.): 100%
Phytophthora infestans; 100 ppm
  TLB control value (C.V.): 100%
Rhizoctonia solani AG-1; 2 ppm
  RSB control value (C.V.): 90%
Rhizoctonia solani AG-1; 10 ppm
  RSB control value (C.V.): 98%
Rhizoctonia solani AG-1; 50 ppm
  RSB control value (C.V.): 100%
Rhizoctonia solani AG-1; 100 ppm
  RSB control value (C.V.): 100%
Botrytis cinerae; [6]
  CGM control value (C.V.): 45%

## CNC(=O)/C(=N/OC)c1ccccc1COc1cc(Br)ccc1C=C(Cl)Cl [Example 62, (E)-2-(2-((5-bromo-2-(2,2-dichlorovinyl)phenoxy)methyl)phenyl)-2-methoxyimino-N-methylacetamide]
[1]
  pest or weed control at 2 ppm: 90%
  pest or weed control at 10 ppm: 99%
  pest or weed control at 50 ppm: 100%
  pest or weed control at 100 ppm: 100%
Erysiphae graminis; 2 ppm
  pest or weed control at 2 ppm: 99%
Erysiphae graminis; 10 ppm
  pest or weed control at 10 ppm: 100%
Erysiphae graminis; 50 ppm
  pest or weed control at 50 ppm: 100%
Erysiphae graminis; 100 ppm
  pest or weed control at 100 ppm: 100%
Puccinia recondita; Puccinia recondita, 2 ppm
  pest or weed control at 2 ppm: 100%
Puccinia recondita; Puccinia recondita, 10 ppm
  pest or weed control at 10 ppm: 100%
Puccinia recondita; Puccinia recondita, 50 ppm
  pest or weed control at 50 ppm: 100%
Puccinia recondita; Puccinia recondita, 100 ppm
  pest or weed control at 100 ppm: 100%
Phytophthora infestans
  pest or weed control at 2 ppm: 99%
  pest or weed control at 10 ppm: 100%
  pest or weed control at 50 ppm: 100%
  pest or weed control at 100 ppm: 100%
Rhizoctonia solani AG-1
  pest or weed control at 2 ppm: 93%
  pest or weed control at 10 ppm: 100%
  pest or weed control at 50 ppm: 100%
  pest or weed control at 100 ppm: 100%
Botrytis cinerae
  pest or weed control at 50 ppm: 30%
Botrytis cinerae; 100 ppm
  pest or weed control at 100 ppm: 85%

## CNC(=O)/C(=N/OC)c1ccccc1COc1ccc(C=C(Br)Br)c(Cl)c1 [Example 82, (E)-2-(2-((4-(2,2-dibromovinyl)-3-chlorophenoxy)methyl)phenyl)-2-methoxyimino-N-methylacetamide]
[1]
  pest or weed control at 2 ppm: 70%
  pest or weed control at 10 ppm: 90%
  pest or weed control at 50 ppm: 100%
  pest or weed control at 100 ppm: 100%
Erysiphae graminis; 2 ppm
  pest or weed control at 2 ppm: 5%
Erysiphae graminis; 10 ppm
  pest or weed control at 10 ppm: 90%
Erysiphae graminis; 50 ppm
  pest or weed control at 50 ppm: 95%
Erysiphae graminis; 100 ppm
  pest or weed control at 100 ppm: 95%
Puccinia recondita; Puccinia recondita, 2 ppm
  pest or weed control at 2 ppm: 98%
Puccinia recondita; Puccinia recondita, 10 ppm
  pest or weed control at 10 ppm: 100%
Puccinia recondita; Puccinia recondita, 50 ppm
  pest or weed control at 50 ppm: 100%
Puccinia recondita; Puccinia recondita, 100 ppm
  pest or weed control at 100 ppm: 100%
Phytophthora infestans
  pest or weed control at 10 ppm: 30%
  pest or weed control at 50 ppm: 90%
  pest or weed control at 100 ppm: 90%
Rhizoctonia solani AG-1
  pest or weed control at 2 ppm: 70%
  pest or weed control at 10 ppm: 90%
  pest or weed control at 50 ppm: 99%
  pest or weed control at 100 ppm: 100%
Botrytis cinerae; 100 ppm
  pest or weed control at 100 ppm: 0%

## CO/N=C(/C(=O)OC)c1ccccc1COc1ccc(C=C(Br)Br)cc1Cl [Example 63, methyl-(E)-2-(2-((4-(2,2-dibromovinyl)-2-chlorophenoxy)methyl)phenyl)-2-methoxyiminoacetate]
[1]
  pest or weed control at 2 ppm: 100%
  pest or weed control at 10 ppm: 100%
  pest or weed control at 50 ppm: 100%
  pest or weed control at 100 ppm: 100%
Erysiphae graminis; 2 ppm
  pest or weed control at 2 ppm: 100%
Erysiphae graminis; 10 ppm
  pest or weed control at 10 ppm: 100%
Erysiphae graminis; 50 ppm
  pest or weed control at 50 ppm: 100%
Erysiphae graminis; 100 ppm
  pest or weed control at 100 ppm: 100%
Puccinia recondita; Puccinia recondita, 2 ppm
  pest or weed control at 2 ppm: 100%
Puccinia recondita; Puccinia recondita, 10 ppm
  pest or weed control at 10 ppm: 100%
Puccinia recondita; Puccinia recondita, 50 ppm
  pest or weed control at 50 ppm: 100%
Puccinia recondita; Puccinia recondita, 100 ppm
  pest or weed control at 100 ppm: 100%
Phytophthora infestans
  pest or weed control at 2 ppm: 99%
  pest or weed control at 10 ppm: 100%
  pest or weed control at 50 ppm: 100%
  pest or weed control at 100 ppm: 100%
Rhizoctonia solani AG-1
  pest or weed control at 2 ppm: 90%
  pest or weed control at 10 ppm: 100%
  pest or weed control at 50 ppm: 100%
  pest or weed control at 100 ppm: 100%
Botrytis cinerae
  pest or weed control at 50 ppm: 20%
Botrytis cinerae; 100 ppm
  pest or weed control at 100 ppm: 75%

## CO/N=C(/C(=O)OC)c1ccccc1COc1cccc(C=C(Br)Br)c1Cl [Example 67, methyl-(E)-2-(2-((3-(2,2-dibromovinyl)-2-chlorophenoxy)methyl)phenyl)-2-methoxyiminoacetate]
[1]
  pest or weed control at 2 ppm: 100%
  pest or weed control at 10 ppm: 100%
  pest or weed control at 50 ppm: 100%
  pest or weed control at 100 ppm: 100%
Erysiphae graminis; 2 ppm
  pest or weed control at 2 ppm: 100%
Erysiphae graminis; 10 ppm
  pest or weed control at 10 ppm: 100%
Erysiphae graminis; 50 ppm
  pest or weed control at 50 ppm: 100%
Erysiphae graminis; 100 ppm
  pest or weed control at 100 ppm: 100%
Puccinia recondita; Puccinia recondita, 2 ppm
  pest or weed control at 2 ppm: 100%
Puccinia recondita; Puccinia recondita, 10 ppm
  pest or weed control at 10 ppm: 100%
Puccinia recondita; Puccinia recondita, 50 ppm
  pest or weed control at 50 ppm: 100%
Puccinia recondita; Puccinia recondita, 100 ppm
  pest or weed control at 100 ppm: 100%
Phytophthora infestans
  pest or weed control at 2 ppm: 99%
  pest or weed control at 10 ppm: 100%
  pest or weed control at 50 ppm: 100%
  pest or weed control at 100 ppm: 100%
Rhizoctonia solani AG-1
  pest or weed control at 2 ppm: 100%
  pest or weed control at 10 ppm: 100%
  pest or weed control at 50 ppm: 100%
  pest or weed control at 100 ppm: 100%
Botrytis cinerae
  pest or weed control at 50 ppm: 40%
Botrytis cinerae; 100 ppm
  pest or weed control at 100 ppm: 85%
